The target of assay [1] is FAK (focal adhesion kinase) FERM domain (Homo sapiens, UniProt Q05397). The format is binding.
For assay [2], the target named is Recombinant HER2-ICD (Intracellular Domain) (human, UniProt P04626 676-1255).

Our source for the IC50 and Kd values is PMC9590610 (Chemical biology & drug design, 2020).

The IC50 is the midpoint of a concentration-inhibition curve. Low readings indicate higher potency, high ones lower potency. As usually defined, the Kd is the concentration at which binding is half-saturated.

`Cc1nc(SC(C)C(=O)Nc2ccc3[nH]c(=O)[nH]c3c2)n(C2CCCC2)c1C` (racemic) [VS4, (rac)-2-((1-cyclopentyl-4,5-dimethyl-1H-imidazol-2-yl)thio)-N-(2-oxo-2,3-dihydro-1H-benzo[d]imidazol-5-yl)propanamide] returned a concentration for half-maximal inhibition (IC50) in assay [1] of 170 nM. Same read-out and setting: for `CC(Oc1ccc(C(=O)NCCN2CCN(C)CC2c2ccccc2)cn1)c1ccccc1` (racemic) [VS14, (rac)-N-(2-(4-methyl-2-phenylpiperazin-1-yl)ethyl)-6-(1-phenylethoxy)nicotinamide] the value was 187 nM.

B1: GST-FAK-NT (FERM) (domain or fragment, UniProt Q05397 35-355, looked up)
chain: RVLKVFHYFESNSEPTTWASIIRHGDATDVRGIIQKIVDSHKVKHVACYGFRLSHLRSEEVHWLHVDMGVSSVREKYELAHPPEEWKYELRIRYLPKGFLNQFTEDKPTLNFFYQQVKSDYMLEIADQVDQEIALKLGCLEIRRSYWEMRGNALEKKSNYEVLEKDVGLKRFFPKSLLDSVKAKTLRKLIQQTFRQFANLNREESILKFFEILSPVYRFDKECFKCALGSSWIISVELAIGPEEGISYLTDKGCNPTHLADFTQVQTIQYSNSEDKDRKGMLQLKIAGAPEPLTVTAPSLTIAENMADLIDGYCRLVNGTS
Turning to B1, the dissociation constant Kd in assay [2] turned out to be 571 nM.
